Assay results taken from ChEMBL document CHEMBL1143189.

Target: T1, Type-1 angiotensin II receptor A (Rattus norvegicus) (UniProt P25095)
T1 sequence (whole entry): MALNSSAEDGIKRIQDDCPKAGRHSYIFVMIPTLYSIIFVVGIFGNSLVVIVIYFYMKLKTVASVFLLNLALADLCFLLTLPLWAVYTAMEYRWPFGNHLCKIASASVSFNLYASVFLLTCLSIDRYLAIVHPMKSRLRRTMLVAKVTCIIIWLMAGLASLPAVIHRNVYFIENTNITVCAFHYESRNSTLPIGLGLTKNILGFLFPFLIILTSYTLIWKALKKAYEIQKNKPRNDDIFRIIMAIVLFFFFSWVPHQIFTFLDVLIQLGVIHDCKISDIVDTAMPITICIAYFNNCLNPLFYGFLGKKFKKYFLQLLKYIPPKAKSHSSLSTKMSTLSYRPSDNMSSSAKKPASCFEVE
Test: Antagonist activity at rat AT1 receptor expressed in CHO cells assessed as angiotensin 2-evoked increase in intracellular calcium level
Format: functional, cell-based

CCCCc1ncc(/C=C(\Cc2cccs2)C(=O)O)n1Cc1ccc(C(=O)O)cc1
pKb: 8.8
